What was measured:
central hemodynamics = assay: Per cent change of hemodynamics: adenosine, SNP and TNG induced controlled hypotension during cerebral aneurysm surgery; assay type: in vivo, human
Protocol: One hour before the operation the patients were premedicated orally with diazepam (10-20 mg.) Atropine (0.5 mg) and droperidol (0.1 mg. per kg.) were given intravenously before induction of anesthesia. Induction was started with thiopental (5 mg. per kg) followed by phenoperidine (1-2 mg), a synthetic opiate with pharmacodymanics resembling fentanyl but with a longer duration of action and 1/10 of its analgesic potency.
Pancuronium bromide (0.1 mg per kg) was given to facilitate endotracheal intubation. Anesthesia was maintained by supplementary doses of phenoperidine and droperidol, as required. […] Phenoperidine was supplemented regularly to prevent the blood pressure from exceeding the preanesthetic level (approx. 1 mg/30-60 min). Controlled hyperventilation was employed with a humidified gas mixture of 60% N2 O in oxygen to maintain PaCO2 values at approximately 30 mmHg (±1.5/SEM). Mannitol (1-1.5 g. per kg) was given routinely at the start of the operation (e.g., 1-2 hours prior to the controlled hypotension). The patients were operated on in the horizontal supine position.
A 1.2-mm plastic cannula was introduced into the left radial artery to monitor systemic arterial blood pressure (MABP) and collect arterial blood. A balloon-tipped, flow-directed, quadruple lumen Swan-Ganz catheter (Model 93A-831-7.5 F, VIP) was inserted percutaneously via the left basilic vein, and its correct position in the pulmonary artery was determined by pressure tracings. The catheter was used for the monitoring of mean right atrial pressure (RAP), mean pulmonary artery pressure (PAP), and mean pulmonary capillary wedge pressure (PCWP) for the determination of cardiac output and collection of mixed venous blood and for the infusion of adenosine. Another plastic cannula was introduced percutaneously, in a retrograde direction, into the right jugular bulb for the collection of blood. The correct position was verified by x-ray.
The ECG was monitored with a standard chest (V5) lead. Heart rate was determined from the R-R interval. Blood pressures were measured by transducers placed at the midthoracic level. Cardiac output (QT) was determined in triplicate according to the thermodilution technique with a cardiac output computer (Edwards Lab, model 9510). Isotonic glucose, 10 ml at 1° C., was used as a thermal indicator. The ECG, heart rate, blood pressures, and thermodilution curves were recorded on a Grass® polygraph.
The infusion was started at a rate of 0.01 mg. per kg. per minute, which was doubled at 15 second intervals until the desired MABP level of 40-50 mmHg was reached. […] Serum creatinine was determined before and on two consecutive days after operation. The standard ECG was recorded the day before and the day after operation.
Subsequent to the tests described above, a 20 mM solution of adenosine in isotonic saline was administered to 50 surgical patients employing techniques similar to those described, except that pretreatment with dipyridamole was omitted.

[1] = Plasma adenosine and metabolite concentrations during cardiopulmonary bypass (HPLC); settings: in vivo; for concentration: human, iv
Protocol: In six cases the plasma adenosine levels were determined by high performance liquid chromatography (HPLC) (Fredholm and Sollevi, J. Physiol. (London), 313: 351-67 (1981) in arterial and in venous (venous lines to the oxygenator) blood. The adenosine metabolites inosine, hypoxanthine and uric acid were also determined by HPLC. The samples were collected as previously described (Sollevi, Acta. Physiol. Scand., 121: 165-72 (1984) at the intervals of 10, 20, 40 and 80 minutes during CPB and 20 minutes after CPB.
Statistical significance (controls v. adenosine group) was determinted with Student's t-test for unpaired data. For significance within the groups the Wilcoxon Rank Sum test was used. p […] 0.05 was regarded as significant.

cardiac output = assay: Cardiac output; assay type: in vivo, human; settings: for cardiac output and heart work (words): intravenous infusion
Description: This is in contrast to other vasodilators, such as sodium nitroprusside, which may reduce cardiac output, depending on the hemodynamic status of the patient. As a consequence, adenosine can be used to stimulate cardiac output in patients with low cardiac output states, due, for example, to heart surgery, infarct and the like.
For this application, effective dosages are intermediate those used for increased graft flow and controlled hypotension. Typically the effective dose is of the order of 40-80 ug/kg/per minute. The duration of treatment can be as long as required to support the heart.

## Nc1ncnc2c1ncn2[C@@H]1O[C@H](CO)[C@@H](O)[C@H]1O [adenosine]
Central hemodynamics; Table IV, n = 10
  HR, change from control: +9 Per Cent from Control
  MABP, change from control: -43 Per Cent from Control
  PAP, change from control: +15 Per Cent from Control
  PCWP, change from control: +14 Per Cent from Control
  PVR, change from control: -15 Per Cent from Control
  QT (cardiac output), change from control: +44 Per Cent from Control
  RAP, change from control: +6 Per Cent from Control
  SVR, change from control: -61 Per Cent from Control
Central hemodynamics; controlled hypotension
  oxygen tissue pressures vs nitroprusside: better preserves oxygen tissue pressures
[1]
  concentration: 2000 to 10000 nM
  Arterial concentration: 0.3 ± 0.1 µM
  arterial levels: approximately doubled
[1]; 20 min
  concentration: 400 ± 100 nM
Cardiac output; 40-80 ug/kg/per minute
  cardiac output on termination of adenosine: frequently remains above the cardiac output prior to treatment
Cardiac output
  cardiac output and heart work (words): increase cardiac output without increasing heart work
Cardiac output; listed as Adenosine
  cardiac output and heart work (words): significantly increasing cardiac output without significantly increasing cardiac work

From US5104859A, “Continuous administration of adenosine to reduce pulmonary vascular resistance” (priority 1990, dated 1992)
